The results in this text go back to patent publication US4766141A, “Spiro-succinimides for treatment of diabetes complications” (Pfizer Inc., priority 1987, dated 1988).

Series [1] deals with sorbitol accumulation in the sciatic nerve and lens of diabetic rats. The series can be described thus: Inhibition of sorbitol accumulation in sciatic nerve and lens of streptozotocin-diabetic rats. To be noted: sacrifice at 27 h, relative to control. It is filed as in vivo. The procedure:
Rel 1,3'S,3R Spiro[naphthalene-1(4H),3'-pyrrolidine]-2', 4,5'-trione-2,3-dihydro-7-fluoro-3-methyl, the product prepared according to the procedure of Example 1B, was tested for its ability to reduce or inhibit sorbitol accumulation in the sciatic nerve and lens of diabetic rats. This was done by following the procedure described by M. J. Peterson et al. in Metabolism, Vol. 28, No. 4, Suppl. 1, p. 456 (1979). A single intravenous dose of streptozotocin (85 mg./kg.) was administered to rats. The test compound was fed to the rats orally at four, seven and 24 hours after the administration of the streptozotocin. At 27 hours after streptozotocin administration, the animals were sacrificed and the sciatic nerve and lens were both removed for sorbitol assay. The control animals were given the same streptozotocin treatment, but were not given the test compound. The results obtained are expressed in terms of percent inhibition of sorbitol (i.e., relative to the control) afforded by the test compound in both the sciatic nerve and lens at three different dosage levels tested (viz., 2.5, 1.5 and 1.0 mg./kg.).

Series [2] can be described thus: Titration with 0.5 N sodium hydroxide (pKa). In kind it is physicochemical. The protocol: A. 12.5 g. of crude 5-carboxy-3-cyano-3-(3-fluorophenyl)-5-methylhexanoic acid dimethyl ester was combined with 62.5 ml. of concentrated sulfuric acid and was heated at 70° C. for 2.5 hours. The reaction was quenched over ice and extracted with three-100 ml. portions of ethyl acetate. The ethyl acetate solution was extracted with pH 11 aqueous sodium hydroxide. The aqueous base layer was washed with ethyl acetate, and the aqueous layer was adjusted to pH 2 with hydrochloric acid and extracted with four-100 ml. portions of ethyl acetate. After drying over anhydrous sodium sulfate, the ethyl acetate extract was concentrated in vacuo to an oil and eventually to a white foam. This was triturated for 20 hours with isopropyl alcohol-diethyl ether to give, after drying at 110° C. at reduced pressure, 610 mg. of the title compound, m.p. 200°-202° C. (shrinks), 212°-215° C. (decomp.). Anal. (C14 H12 O3 NF). Calcd. C,64.36; H,4.63; N,5.36. Found: C,64.25; H,4.60; N,5.42. IR(KBr): 3228, 1723, 1705, 1692, 1605, 1343, 1236, 1199, 1186 cm^-1. NMR 250 MHZ (CD3 SOCD3):δ11.7 (vbs, 1, NH), 7.97(m, 1), 7.31(m, 1 ), 7.13(m, 1), 3.5-2.1(m, 5), and 1.16(d, 3) ppm. […] This experiment defines the structure of the major diasteromer as the title spiro[naphthalene pyrrolidine]trione rather than the alternate indanone spiro-methyl glutarimide cyclization product. […]

The target in series [3] is T1, aldose reductase obtained from human placenta (Homo sapiens, UniProt P15121).
T1 construct: aldose reductase obtained from human placenta; from tissue; host or cells: human placenta
As to the kind of experiment: Inhibition of aldose reductase obtained from human placenta. It is filed as biochemical. The note with it: relative to activity in absence of inhibitor, read-out: percent inhibition of aldose reductase enzyme activity. The procedure:
Rel 1,3'S,3R Spiro[naphthalene-1(4H),3'-pyrrolidine]-2',4,5'-trione-2,3-dihydro-7-fluoro-3-methyl, the product prepared according to the procedure of Example 1B, was tested for inhibition of aldose reductase obtained from human placenta by using the procedure described by M. J. Peterson et al. in Metabolism, Vol. 28, No. 4, Suppl. 1, p. 456 (1979). The results obtained are expressed in terms of the percent inhibition of aldose reductase enzyme activity (i.e., relative to the aldose activity in the absence of inhibitor) afforded by the compound at three different molar concentration levels (viz., 10^-5, 10^-6 and 10^-7 M).

SMILES strings stand for the structures.

As to `C[C@@H]1C[C@]2(CC(=O)NC2=O)c2cc(F)ccc2C1=O` (relative stereo) [Example 1, Rel 1,3'S, 3R Spiro[naphthalene-1(4H), 3'-pyrrolidine]-2', 4,5'-trione-2,3-dihydro-7-fluoro-3-methyl], the “percent inhibition of sorbitol” value in series [1] (lens, 1.0 mg./kg. oral at 4, 7 and 24 h after streptozotocin) was 39%; in series [1] (lens, 1.5 mg./kg. oral at 4, 7 and 24 h after streptozotocin), 39%; in series [1] (sciatic nerve, 1.0 mg./kg. oral at 4, 7 and 24 h after streptozotocin), 69%; in series [1] (sciatic nerve, 1.5 mg./kg. oral at 4, 7 and 24 h after streptozotocin), 76%. The pKa in series [2] (in 1:1 dioxane-water) is 9.59; in series [2] (in water), 8.25. Also, the inhibition at 10 µM in series [3] (10^-5 M) came out at 78%. Moreover, the inhibition at 1 µM in series [3] (10^-6 M) is 41%. Besides, in series [3] (10^-7 M), the inhibition at 0.1 µM was determined as 3%.
